This experiment relates to lower esophageal sphincter. As to the kind of experiment: Lower esophageal sphincter pressure recording during NGES in anesthetized dogs, after L-NAME and atropine. It counts as in vivo. As for the experimental part:
All recordings were performed one hour after consumption of three ounces of canned dog food to prevent fluctuations in lower esophageal sphincter pressure, and under mild sedation (acepromazine 0.5 mg/kg). During electrical stimulation days, tests consisted of three periods of 20 minutes each: […] Electrical stimulation was delivered using an external pulse generator. […] Area under the curve (“AUC”) and pressure were compared among the three periods. Data are shown as mean±SD, ANOVA and t-test, p<0.05. Three female mongrel dogs underwent continuous recording of lower esophageal sphincter pressure under anesthesia. NGES was delivered to the lower esophageal sphincter for 10 minutes at: […] Changes in lower esophageal sphincter pressure during NGES are presented as percent change from preceding baseline. Results (FIG. 6) are presented as mean±SD.

[1] abbreviates: in words, anesthetized dogs, L-NAME 50 mg/kg, atropine 0.05 mg/kg in presence of L-NAME.
Where [2] appears, read: in words, anesthetized dogs, L-NAME 50 mg/kg, atropine 0.05 mg/kg in presence of L-NAME, listed as atropine.
The mark [3] stands for this setting: LES pressure during NGES, percent change from preceding baseline, L-NAME 50 mg/kg, atropine 0.05 mg/kg in presence of L-NAME, mean (SD).
Setting [4] is: during NGES, L-NAME 50 mg/kg, atropine 0.05 mg/kg in presence of L-NAME, mean (SD).

Structures are written as SMILES. “Also recorded” adds a separate entry of the source. Marks after values point to notes of the source that are not given here.

Consider 2 compounds from patent US8160709B2, “Use of electrical stimulation of the lower esophageal sphincter to modulate lower esophageal sphincter pressure” (Endostim, Inc., priority 2006, dated 2012).

In the case of `CN1[C@@H]2CC[C@H]1C[C@@H](OC(=O)C(CO)c1ccccc1)C2` (stereo partly drawn) [Atropine, atropine], the “Effect on (baseline) lower esophageal sphincter pressure” value runs as follows: under setting [1], “lowered”; under setting [2], “reduced”. In addition, the “Effect on initial rise in lower esophageal sphincter pressure induced by NGES” value under setting [1] is reported as “abolished” and the “Effect on initial rise in lower esophageal sphincter pressure induced by NGES” value under setting [2] is “reduced”.

For `COC(=O)[C@@H](N)CCCNC(=N)N[N+](=O)[O-]` [L-NAME], under setting [3], the “Initial Peak (% change)” value is on record as 76 (48.6) % change and the “Relaxation (% change)” value is 28.2 (34.1)** % change. Moreover, the “Lower Esophageal Sphincter Pressure Baseline” value (anesthetized female mongrel dogs, L-NAME infusion 50 mg/kg, atropine 0.05 mg/kg in the presence of L-NAME, mean (SD)) is on record as 35.7 (5.1)* mmHg. Further, under setting [4], the “Peak Duration” value was 6.7 (3.9) sec and the “Relaxation Duration” value is reported as 4.4 (3.8) sec. The “Effect on lower esophageal sphincter relaxation phase following NGES” value (in words, anesthetized dogs, L-NAME 50 mg/kg) is reported as “markedly diminished or abolished; also recorded: markedly suppressed”. Further, under setting [1], the “Effect on (baseline) lower esophageal sphincter pressure” value was “increased” and the “Effect on initial rise in lower esophageal sphincter pressure induced by NGES” value was “augmented; also recorded: enhanced”.
